Test results: the supplement of paper PMC10307832

Legend:
Experiment in all cases: relative viability (nuclei count vs DMSO), 5 days (fraction); higher = more cells survive
TPCA-1 = compound: C1=CC(=CC=C1C2=CC(=C(S2)NC(=O)N)C(=O)N)F [TPCA-1]
How it was run: (§1)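 After an overnight hold at 37 °C, lung cancer cell lines in 1536-well plates were pinned with five library-drug doses (not always all listed), each √10 from the next, on vehicle-anchored plates. The cells stayed 5 days without fresh medium, then a one-step fix, permeabilisation and Hoechst stain preceded 4× imaging and MetaXpress nuclear counts. A plate passed only with control CV under 25% and at least one doubling. Viability is the median, over plates, of treated-well nuclei relative to vehicle-well nuclei.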

[1] = compound: C1/C(=C\C2=CC=CS2)/C(=O)/C(=C/C3=CC=CS3)/C1
How it was run: as §1

Lestaurtinib = compound: C[C@]12O[C@H](C[C@]1(O)CO)n1c3ccccc3c3c4c(c5c6ccccc6n2c5c31)CNC4=O [Lestaurtinib]
How it was run: as §1

[2] = compound: C1/C(=C\C2=CC=CS2)/C(=O)/C(=C/C3=CC=CS3)/C1 + COc1cc2c(Oc3ccc(NC(=O)C4(C(=O)Nc5ccc(F)cc5)CC4)cc3F)ccnc2cc1OCCCN1CCOCC1 [Foretinib] (partner 0.25 µM)
How it was run: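 For relative viability, nuclei counts in treated wells were divided by those in vehicle wells. Lung cancer cell lines had been pin-tool dosed in 1536-well plates the day after seeding and cultured for 5 days, then fixed and stained in one step (final 0.05% Triton X-100, 1% formaldehyde, 1 ug/ml Hoechst) and imaged at 4×. Doses were one drug alone or a fixed anchor-drug dose plus five library-drug doses (not always all listed) in √10 steps, and values are duplicate-plate medians.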

Row | Cell Line | relative viability (TPCA-1; 0.04 µM) | relative viability (TPCA-1; 0.1265 µM) | relative viability (TPCA-1; 0.4 µM) | relative viability (TPCA-1; 1.265 µM) | relative viability (TPCA-1; 4 µM) | relative viability ([1]; 0.2 µM) | relative viability ([1]; 0.6325 µM) | relative viability ([1]; 2 µM) | relative viability ([1]; 6.325 µM) | relative viability ([1]; 20 µM) | relative viability (Lestaurtinib; 0.005 µM) | relative viability (Lestaurtinib; 0.01581 µM) | relative viability (Lestaurtinib; 0.05 µM) | relative viability (Lestaurtinib; 0.1581 µM) | relative viability (Lestaurtinib; 0.5 µM) | relative viability ([2]; first compound 0.2 µM) | relative viability ([2]; first compound 0.6325 µM) | relative viability ([2]; first compound 2 µM) | relative viability ([2]; first compound 6.325 µM) | relative viability ([2]; first compound 20 µM)
1 | NCI-H661 | 0.963 | 0.858 | 0.983 | 0.961 | 0.7 | 1.05 | 1.03 | 0.998 | 0.903 | 0.985 | 1.01 | 0.972 | 0.964 | 0.935 | 0.439 | 1.05 | 1.02 | 1.02 | 0.993 | 1
2 | EMC-BAC-2 | 1.01 | 0.979 | 1.05 | 0.819 | 0.392 | 0.904 | 1.06 | 0.978 | 0.916 | 1.07 | 0.925 | 1.04 | 0.73 | 0.417 | 0.357 | 1.01 | 1.03 | 0.973 | 0.656 | 1.09
3 | NCI-H1355 | 1.09 | 0.89 | 0.94 | 0.859 | 0.751 | 1 | 0.967 | 0.995 | 0.833 | 0.963 | 1.07 | 1.01 | 0.777 | 0.582 | 0.508 | 1.01 | 0.877 | 0.995 | 0.913 | 0.954
4 | NCI-H23 | 1.1 | 0.846 | 0.956 | 0.782 | 0.231 | 1.13 | 1.21 | 1.11 | 0.798 | 0.962 | 0.999 | 1.1 | 0.817 | 0.594 | 0.378 | 0.973 | 1.13 | 1.07 | 0.851 | 0.991
5 | NCI-H1651 | 1.05 | 0.921 | 0.955 | 1.01 | 0.877 | 0.978 | 1.07 | 0.985 | 0.861 | 0.949 | 0.989 | 1.05 | 0.81 | 1.07 | 0.69 | 0.797 | 0.815 | 0.785 | 0.671 | 0.692
6 | NCI-H1975 | 0.974 | 0.887 | 0.932 | 0.87 | 0.576 | 0.99 | 0.891 | 0.886 | 0.838 | 0.969 | 1.04 | 1.03 | 0.829 | 0.774 | 0.649 | 0.971 | 0.979 | – | 0.771 | 0.895
7 | COR-L23 | 1.03 | 0.924 | 0.968 | 0.986 | 0.857 | 1.03 | 1.05 | 1 | 0.865 | 0.947 | 1.08 | 1.13 | 0.633 | 0.829 | 0.166 | 1.09 | 1.09 | 0.874 | 0.859 | 0.958
8 | LOU-NH91 | 1.05 | 0.943 | 0.981 | 0.878 | 0.851 | 1.02 | 0.991 | 1.09 | 0.874 | 1.02 | 0.946 | 1 | 0.865 | 0.65 | 0.423 | 0.953 | 0.921 | 0.919 | 0.827 | 0.944
9 | NCI-H441 | 1.22 | 0.816 | 0.882 | 0.704 | 0.425 | 1.14 | 1.24 | 1.14 | 0.867 | 0.995 | 1.02 | 1.05 | 0.611 | 0.61 | 0.438 | 1.11 | 0.913 | 1.15 | 0.867 | 0.927
10 | NCI-H647 | 0.972 | 0.818 | 1.07 | 0.867 | 0.48 | 1.01 | 1.01 | 1.02 | 0.84 | 0.85 | 0.918 | 0.988 | 0.513 | 0.407 | 0.172 | 1.21 | 1.22 | 1.11 | 0.948 | 1.21
11 | NCI-H1915 | 1.1 | 0.984 | 1.05 | 0.896 | 0.608 | 1.02 | 1.04 | 0.99 | 0.93 | 0.97 | 1.01 | 1.05 | 0.927 | 0.642 | 0.344 | 1.09 | 1.1 | 1.01 | 1.07 | 1.1
12 | NCI-H1299 | 1.03 | 0.977 | 0.991 | 1.01 | 1.07 | 0.993 | 1.04 | 0.963 | 0.859 | 0.997 | 1.03 | 1.02 | 0.762 | 0.799 | 0.727 | 1.17 | 1.12 | 1.1 | 1.03 | 1.11
13 | NCI-H1734 | 1.17 | 0.848 | 1.1 | 1.03 | 0.553 | 1.02 | 1.01 | 1.03 | 0.891 | 0.984 | 0.993 | 0.956 | 0.66 | 0.563 | 0.262 | 0.805 | 0.939 | 0.92 | 0.797 | 0.818
14 | NCI-H1993 | 0.985 | 0.805 | 0.94 | 1.06 | 0.722 | 1.04 | 0.898 | 1.05 | 0.786 | 0.861 | 1.02 | 0.949 | 0.824 | 0.709 | 0.567 | 0.748 | 0.751 | 0.75 | 0.572 | 0.745
15 | LK-2 | 1.24 | 0.8 | 0.993 | 0.982 | 0.503 | 1.02 | 1 | 1.1 | 1.06 | 0.966 | 1.24 | 1.06 | 0.872 | 0.651 | 0.279 | 1.57 | 1.51 | 1.11 | 1.18 | 1.41
16 | HCC-78 | 0.972 | 0.834 | 0.892 | 0.788 | 0.391 | 0.972 | 0.927 | 1.25 | 0.823 | 0.908 | 0.823 | 0.943 | 0.547 | 0.577 | 0.44 | 0.581 | 0.602 | 0.56 | 0.444 | 0.481
